# Entries after “also recorded” stand apart in the source; their conditions may differ. Read-outs that look alike come from different tables or passages of the source.
# Assays:
# [1] = system: pLATS2(Ser 83) in RPE1 cells; assay: Substrate phosphorylation immunofluorescence assay, pLATS2(Ser 83), RPE1; type: cell-based, human; conditions: for IC50: Homo sapiens, read-out: pLATS2 (Ser83) IC50
# Protocol: (§1) We employed the protocol described in Figure 3D to analyze substrate phosphorylation in HeLa cells following treatment with all 10 inhibitors in dose–response. Asynchronous cells were incubated with vehicle (DMSO) or different inhibitor doses for 8 h and then fixed and labeled with a mixture of three antibodies directed against pLATS2(Ser 83), pH3(Ser 28), and MPM2 [which detects mitotic phosphoepitopes; ([86])]. While both the anti-pLATS2(Ser 83) and MPM2 antibodies are mouse monoclonals, they are of different IgG subclasses [IgG2b for anti-pLATS2(Ser 83) and IgG1 for MPM2], and can thus be detected with subclass-specific secondary antibodies (Table S3 in Supplementary Material).
# (§2) In control mitotic cells, pLATS2(Ser 83) is concentrated in foci around the spindle poles (Figure 3E; top row – green arrow) and pH3(Ser 28) is on the mitotic chromatin (Figure 3E; top row – red arrow). Selective kinase inhibition should result in loss of one signal but not the other, as illustrated by the example images for specific conditions in Figure 3E (middle and bottom rows). Cells were imaged in 4 channels to visualize pLATS2(Ser 83), pH3(Ser 28), MPM2, and DNA (labeled with Hoechst) and mitotic cells were segmented based on their bright MPM2 labeling (Figure 3E). Intensity and area thresholds were set to select the pLATS2(Ser 83) foci and the pH3(Ser 28)-labeled chromatin in their respective channels in DMSO-treated control cells and the same thresholds were applied for inhibitor-treated cells. The mean fluorescence intensity per pixel was measured to assess the activities of the kinases targeting these two substrate phosphorylation sites.
# (§3) Twelve thousand HeLa cells, 10,000 U2OS cells, or 8,000 RPE1 cells were seeded into 96-well glass-bottom Sensoplates (Greiner) 16 h before inhibitor addition. Prior to seeding, the glass-bottom plates were coated with poly-L-lysine (Sigma). […] After 8 h cells were fixed with 4% PFA for 20 min at room temperature. The fixed cells were washed with PBS. For immunostaining, cells were permeabilized and blocked with PBS containing 10% normal donkey serum (Jackson ImmunoResearch) and 0.1% Triton-X100 for 1 h at room temperature. Primary antibodies against phospho-LATS2 (Ser 83), phospho-histone H3(Ser 28), and anti-phospho-MPM2 (see Table S3 in Supplementary Material) were incubated for 1 h at room temperature. […] Cells were then washed twice with PBS containing 0.1% Triton-X100. Image acquisition in four channels was performed using a CV7000 spinning disk confocal system (Yokogawa Electric Corporation) with a 40 × 0.95 NA U-PlanApo objective and 2560 × 2160 pixel sCMOS camera. […] Fifty fields per well were imaged with quadruplicate wells for each condition. Image analysis was done using the CV7000 image analysis software (Yokogawa Electric Corporation). Between 100 and 1,000 mitotic cells per condition were segmented applying object identification parameters to select for bright MPM2 labeling. Using a nuclear identifier protocol, minimum intensity thresholds were set for pLATS2(Ser 83) and the pH3(Ser 28) signals, and the resulting identified objects were eroded, dilated, and filtered for size by user-defined thresholds. For only the MPM2-positive mitotic cells, the mean fluorescence intensity of the identified pLATS2(Ser 83) and pH3(Ser 28) objects was measured, and the average intensity per cell per well was calculated. The same thresholds were applied for all of the inhibitor-treated samples, which were processed, imaged, and analyzed in parallel with control DMSO-treated cells. Data were fit using a four-parameter, variable slope fit in Prism (GraphPad). Primary and secondary antibody dilutions can be found in Table S3 in Supplementary Material.
# [2] = system: pH3(Ser 28) in U2OS cells; assay: Substrate phosphorylation immunofluorescence assay, pH3(Ser 28), U2OS; type: cell-based, human
# Protocol: (§4) After 8 h cells were fixed with 4% PFA for 20 min at room temperature. The fixed cells were washed with PBS. For immunostaining, cells were permeabilized and blocked with PBS containing 10% normal donkey serum (Jackson ImmunoResearch) and 0.1% Triton-X100 for 1 h at room temperature. Primary antibodies against phospho-LATS2 (Ser 83), phospho-histone H3(Ser 28), and anti-phospho-MPM2 (see Table S3 in Supplementary Material) were incubated for 1 h at room temperature. […] Cells were then washed twice with PBS containing 0.1% Triton-X100. […] Fifty fields per well were imaged with quadruplicate wells for each condition. Image analysis was done using the CV7000 image analysis software (Yokogawa Electric Corporation). Between 100 and 1,000 mitotic cells per condition were segmented applying object identification parameters to select for bright MPM2 labeling. Using a nuclear identifier protocol, minimum intensity thresholds were set for pLATS2(Ser 83) and the pH3(Ser 28) signals, and the resulting identified objects were eroded, dilated, and filtered for size by user-defined thresholds. […] The same thresholds were applied for all of the inhibitor-treated samples, which were processed, imaged, and analyzed in parallel with control DMSO-treated cells. Data were fit using a four-parameter, variable slope fit in Prism (GraphPad).
# [3] = system: pH3(Ser 28) in HeLa cells; assay: Substrate phosphorylation immunofluorescence assay, pH3(Ser 28), HeLa; type: cell-based, human; conditions: for pHistone H3 (Ser28) IC50: 8 h inhibitor treatment
# Protocol: as §4
# Aurora B = conditions: cited from earlier work; for IC50: read-out: Aurora B IC50 (Published)
# [4] = system: pAuroraB(Thr 232), pH3(Ser 10), pH3(Ser 28) in HeLa cells; assay: Immunoblotting of pAuroraB(Thr 232), pH3(Ser 28) and pH3(Ser 10); type: cell-based, human; conditions: immunoblot; for Effect on pH3(Ser 10), pH3(Ser 28), pAuroraB(Thr 232): dose–response
# [5] = system: pLATS2(Ser 83) in HeLa cells; assay: Substrate phosphorylation immunofluorescence assay, pLATS2(Ser 83), HeLa; type: cell-based, human
# Protocol: as §1, §2, §3
# [6] = system: pLATS2(Ser 83) in U2OS cells; assay: Substrate phosphorylation immunofluorescence assay, pLATS2(Ser 83), U2OS; type: cell-based, human; conditions: for IC50: Homo sapiens, read-out: pLATS2 (Ser83) IC50
# Protocol: as §1, §2, §3
# [7] = target: T1, 363 human kinases (including Aurora A/B/C) (Homo sapiens, UniProt P36888); assay: biochemical; type: biochemical; conditions: FLT3, [ATP] 50 µM
# T1 sequence (P36888 27-993): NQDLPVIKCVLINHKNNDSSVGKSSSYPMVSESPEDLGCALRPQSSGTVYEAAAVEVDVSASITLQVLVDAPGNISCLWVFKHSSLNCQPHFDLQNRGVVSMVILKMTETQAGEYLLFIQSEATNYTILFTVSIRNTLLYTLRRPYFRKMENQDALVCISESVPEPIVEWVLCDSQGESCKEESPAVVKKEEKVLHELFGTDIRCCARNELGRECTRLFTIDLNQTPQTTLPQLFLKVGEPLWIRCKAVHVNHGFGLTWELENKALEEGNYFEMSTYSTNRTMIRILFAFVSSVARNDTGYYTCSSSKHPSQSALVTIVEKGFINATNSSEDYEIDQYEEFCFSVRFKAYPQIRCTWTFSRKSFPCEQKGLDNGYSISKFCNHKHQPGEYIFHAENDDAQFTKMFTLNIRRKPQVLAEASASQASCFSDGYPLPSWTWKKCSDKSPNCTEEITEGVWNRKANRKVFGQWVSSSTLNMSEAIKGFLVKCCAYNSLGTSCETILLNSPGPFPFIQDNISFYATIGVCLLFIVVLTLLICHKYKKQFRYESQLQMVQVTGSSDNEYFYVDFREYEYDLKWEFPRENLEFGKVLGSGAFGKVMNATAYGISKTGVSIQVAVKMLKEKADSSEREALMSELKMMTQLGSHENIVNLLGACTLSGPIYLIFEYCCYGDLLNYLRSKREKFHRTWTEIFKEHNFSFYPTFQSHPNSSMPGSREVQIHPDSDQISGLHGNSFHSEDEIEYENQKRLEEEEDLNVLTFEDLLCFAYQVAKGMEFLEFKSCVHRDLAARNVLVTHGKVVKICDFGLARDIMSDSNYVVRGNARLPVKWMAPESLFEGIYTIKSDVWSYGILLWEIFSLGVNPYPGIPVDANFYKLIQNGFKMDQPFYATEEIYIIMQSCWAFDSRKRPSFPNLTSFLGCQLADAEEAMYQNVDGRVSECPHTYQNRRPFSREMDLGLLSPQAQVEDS
# Excerpt: However, the Aurora A/B selectivity ratios derived from our in vitro and in vivo data can be compared to prioritize inhibitors.
# [8] = Homo sapiens, 8 h, read-out: pHistone H3 (Ser28) IC50
# [9] = 500 nM, read-out: % Enzyme Activity (relative to DMSO controls)
structure (smiles),measurement,setting,value
CCn1cc(-c2ccnc3[nH]c(-c4cccc(CN(C)C)c4)cc23)c(-c2ccc(NC(=O)N(C)C)cc2)n1 [GSK1070916],pLATS2 (Ser83) IC50,"[1]; RPE1, 8 h inhibitor treatment",NE@200 nM
same,IC50,[2]; [8],8 nM
same,Concentration completely eliminating pH3(Ser 28) labeling without affecting pLATS2(Ser 83) labeling,[3],< 100 nM
same,IC50,[3]; [8],6 nM
same,Ki,"Aurora B; ref 61, read-out: Aurora B-INCENP Ki (Published)",0.38 nM
same,Concentration eliminating Aurora B activity without affecting pAuroraA (Thr 288),[4],< 100 nM
same,"Effect on pH3(Ser 10), pH3(Ser 28), pAuroraB(Thr 232)",[4],eliminated
same,pLATS2 (Ser83) IC50,"[5]; HeLa, 8 h inhibitor treatment",NE (100 nM); also recorded: NE@100 nM
same,pLATS2 (Ser83) IC50,[6]; 8 h inhibitor treatment,NE@200 nM
O=C(O)[C@]1(Cc2cccc(Nc3nccs3)n2)CC[C@@H](Oc2cccc(Cl)c2F)CC1 [MK-5108],IC50,"[1]; RPE-1, 8 h",1800 nM
same,inhibition at 15 µM,"[2]; Homo sapiens, read-out: pHistone H3 (Ser28) inhibition at highest concentration tested",20%
same,pHistone H3 (Ser28) IC50,[3],NE (9 μM); also recorded: NE@9 μM
same,IC50,Aurora B; ref 56,14.1 nM
same,remaining activity at 0.1 µM,"[7]; 100 nM, read-out: % Enzyme Activity (relative to DMSO controls)",58.2%
same,remaining activity at 0.5 µM,[7]; [9],30.9%
same,"Effect on pH3(Ser 10), pH3(Ser 28), pAuroraB(Thr 232)",[4],no effect
same,IC50,"[5]; Homo sapiens, HeLa, 8 h, read-out: pLATS2 (Ser83) IC50, HeLa, 8 h inhibitor treatment",600 to 800 nM
same,IC50,"[5]; read-out: pLATS2 (Ser83) IC50, HeLa, 8 h inhibitor treatment",610 nM
same,IC50,[6]; 8 h,1200 nM
O=C(c1cccc(Cl)c1F)N1CCN(Cc2cccc(Nc3nccs3)n2)CC1 [MK-8745],IC50,"[1]; RPE-1, RPE1, 8 h inhibitor treatment",2300 nM
same,pHistone H3 (Ser28) IC50,[2]; 8 h inhibitor treatment,NE@15 µM
same,pHistone H3 (Ser28) IC50,[3],NE (9 μM); also recorded: NE@9 µM
same,IC50,Aurora B; ref 57,280 nM
same,% Enzyme Activity (relative to DMSO controls),[7]; 500 nM,88.10%
same,remaining activity at 0.5 µM,[7]; [9],88.4%
same,"Effect on pH3(Ser 10), pH3(Ser 28), pAuroraB(Thr 232)",[4],no effect
same,IC50,"[5]; HeLa, 8 h inhibitor treatment, read-out: pLATS2 (Ser83) IC50",610 nM
same,IC50,"[5]; Homo sapiens, HeLa, 8 h, HeLa, 8 h inhibitor treatment, read-out: pLATS2 (Ser83) IC50",600 to 800 nM
same,Lowest concentration to maximally inhibit Aurora A in cells relative to lowest AZD1152-HQPA concentration to fully inhibit Aurora B,[5]; cellular assays,> 100 fold
same,IC50,[6]; 8 h inhibitor treatment,1700 nM
